Experimental data taken from patent US10638756B2, “Molecules having pesticidal utility, and intermediates, compositions, and processes, related thereto” (Dow AgroSciences LLC, priority 2017, dated 2020).

Key:
[1] = system: Beet Armyworm (Spodoptera exigua); test: Bioassay on Beet Armyworm (BAW), 128-well diet tray assay; format: in vivo; conditions: for mortality at 50 µg/cm2: Spodoptera exigua, 168 h, 50 μg/cm^2 on artificial diet, second instar larvae, five to seven days, read-out: BAW % Control (or Mortality) rating
[2] = system: Cabbage Looper (Trichoplusia ni); test: Bioassay on Cabbage Looper (CL), 128-well diet tray assay; format: in vivo; conditions: 168 h, 50 μg/cm^2 on artificial diet, second instar larvae, five to seven days, read-out: CL % Control (or Mortality) rating
In short: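 Percent mortality, averaged across eight replicate wells, after second-instar larvae (1–5 per well) fed for five to seven days on diet dosed at 50 μg/cm^2. Compound was applied in acetone-water 90:10 and dried; trays kept vented at 25° C under 14:10 photoperiod.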

SMILES | mortality at 50 µg/cm2 [1] | mortality at 50 µg/cm2 [2] | other results
CN(NC(=O)c1ccc(/C(F)=C/C(c2cc(Cl)c(Cl)c(Cl)c2)C(F)(F)F)cc1C(F)(F)F)C1CCCC1 (stereo not drawn) [F144, (Z)—N′-Cyclopentyl-N′-methyl-4-(1,4,4,4-tetrafluoro-3-(3,4,5-trichlorophenyl)but-1-en-1-yl)-2-(trifluoromethyl)benzohydrazide] | 50 to 100% | 50 to 100% | 
O=C(NNCC(F)(F)F)c1ccc(/C(F)=C/C(c2cc(Cl)c(Cl)c(Cl)c2)C(F)(F)F)cc1C(F)(F)F (stereo not drawn) [F49, (Z)-4-(1,4,4,4-tetrafluoro-3-(3,4,5-trichlorophenyl)but-1-en-1-yl)-N′-(2,2,2-trifluoroethyl)-2-(trifluoromethyl)benzohydrazide] | 50 to 100% | 50 to 100% | 
O=C(NNc1cccnc1)c1ccc(/C(F)=C/C(c2cc(Cl)c(Cl)c(Cl)c2)C(F)(F)F)cc1C(F)(F)F (stereo not drawn) [F121, (Z)—N′-(Pyridin-3-yl)-4-(1,4,4,4-tetrafluoro-3-(3,4,5-trichlorophenyl)but-1-en-1-yl)-2-(trifluoromethyl)benzohydrazide] | 50 to 100% | 50 to 100% | 
O=C(NNc1ncccn1)c1ccc(/C(F)=C/[C@H](c2cc(Cl)c(Cl)c(Cl)c2)C(F)(F)F)cc1C(F)(F)F (single isomer, unassigned) [F120] | 50 to 100% | 50 to 100% | BAW (Table CD-2) ([1]; 0.005 μg/cm^2): 100; BAW (Table CD-2) ([1]; 0.05 μg/cm^2): 100; BAW (Table CD-2) ([1]; 0.5 μg/cm^2): 100; BAW (Table CD-2) ([1]; 5.0 μg/cm^2): 100
CCc1cnc(N(C)NC(=O)c2ccc(/C(F)=C/C(c3cc(Cl)c(Cl)c(Cl)c3)C(F)(F)F)cc2C(F)(F)F)nc1 (stereo not drawn) [F41, (Z)—N′-(5-Ethylpyrimidin-2-yl)-N′-methyl-4-(1,4,4,4-tetrafluoro-3-(3,4,5-trichlorophenyl)but-1-en-1-yl)-2-(trifluoromethyl)benzohydrazide] | 50 to 100% | 50 to 100% | 
CC(C)(C)NNC(=O)c1ccc(/C(F)=C/C(c2cc(Cl)c(Cl)c(Cl)c2)C(F)(F)F)cc1C(F)(F)F (stereo not drawn) [F40, (Z)—N′-(tert-Butyl)-4-(1,4,4,4-tetrafluoro-3-(3,4,5-trichlorophenyl)but-1-en-1-yl)-2-(trifluoromethyl)benzohydrazide] | 50 to 100% | 50 to 100% | 
O=C(NNc1nccc(C(F)(F)F)n1)c1ccc(/C(F)=C/C(c2cc(Cl)c(Cl)c(Cl)c2)C(F)(F)F)cc1C(F)(F)F (stereo not drawn) [F44, (Z)-4-(1,4,4,4-Tetrafluoro-3-(3,4,5-trichlorophenyl)but-1-en-1-yl)-2-(trifluoromethyl)-N′-(4-(trifluoromethyl)pyrimidin-2-yl)benzohydrazide] | 50 to 100% | 50 to 100% | 
O=C(NNc1ncc(F)cn1)c1ccc(/C(F)=C/C(c2cc(Cl)c(Cl)c(Cl)c2)C(F)(F)F)cc1C(F)(F)F (stereo not drawn) [F114, (Z)—N′-(5-Fluoropyrimidin-2-yl)-4-(1,4,4,4-tetrafluoro-3-(3,4,5-trichlorophenyl)but-1-en-1-yl)-2-(trifluoromethyl)benzohydrazide] | 50 to 100% | 50 to 100% | 
CN(NC(=O)c1ccc(/C(F)=C/C(c2cc(Cl)c(Cl)c(Cl)c2)C(F)(F)F)cc1C(F)(F)F)c1ncc(N)cn1 (stereo not drawn) [F166, (Z)—N′-(5-Aminopyrimidin-2-yl)-N′-methyl-4-(1,4,4,4-tetrafluoro-3-(3,4,5-trichlorophenyl)but-1-en-1-yl)-2-(trifluoromethyl)benzohydrazide] | 50 to 100% | 50 to 100% | 
CN(NC(=O)c1ccc(/C(F)=C/C(c2cc(Cl)cc(C(F)(F)F)c2)C(F)(F)F)cc1C(F)(F)F)c1ncccn1 (stereo not drawn) [F83, (Z)-4-(3-(3-Chloro-5-(trifluoromethyl)phenyl)-1,4,4,4-tetrafluorobut-1-en-1-yl)-N′-methyl-N′-(pyrimidin-2-yl)-2-(trifluoromethyl)benzohydrazide] | 50 to 100% | 50 to 100% | 
O=C(Nn1cccc1)c1ccc(/C(F)=C/C(c2cc(Cl)c(Cl)c(Cl)c2)C(F)(F)F)cc1C(F)(F)F (stereo not drawn) [F51, (Z)—N-(1H-Pyrrol-1-yl)-4-(1,4,4,4-tetrafluoro-3-(3,4,5-trichlorophenyl)but-1-en-1-yl)-2-(trifluoromethyl)benzamide] | 50 to 100% | 50 to 100% | 
COCN(NC(=O)c1ccc(/C(F)=C/C(c2cc(Cl)c(Cl)c(Cl)c2)C(F)(F)F)cc1C(F)(F)F)c1ncccn1 (stereo not drawn) [F179, (Z)—N′-(methoxymethyl)-N′-(pyrimidin-2-yl)-4-(1,4,4,4-tetrafluoro-3-(3,4,5-trichlorophenyl)but-1-en-1-yl)-2-(trifluoromethyl)benzohydrazide] | 50 to 100% | 50 to 100% | 
O=C(NNc1ccnnc1)c1ccc(/C(F)=C/C(c2cc(Cl)c(Cl)c(Cl)c2)C(F)(F)F)cc1C(F)(F)F (stereo not drawn) [F33, (Z)—N′-(Pyridazin-4-yl)-4-(1,4,4,4-tetrafluoro-3-(3,4,5-trichlorophenyl)but-1-en-1-yl)-2-(trifluoromethyl)benzohydrazide] | 50 to 100% | 50 to 100% | 
O=C(NNC1CCCC1)c1ccc(/C(F)=C/C(c2cc(Cl)c(Cl)c(Cl)c2)C(F)(F)F)cc1C(F)(F)F (stereo not drawn) [F110, (Z)—N′-Cyclopentyl-4-(1,4,4,4-tetrafluoro-3-(3,4,5-trichlorophenyl)but-1-en-1-yl)-2-(trifluoromethyl)benzohydrazide] | 50 to 100% | 50 to 100% | 
N#CCCNNC(=O)c1ccc(/C(F)=C/C(c2cc(Cl)c(Cl)c(Cl)c2)C(F)(F)F)cc1C(F)(F)F (stereo not drawn) [F142, (Z)—N′-(2-Cyanoethyl)-4-(1,4,4,4-tetrafluoro-3-(3,4,5-trichlorophenyl)but-1-en-1-yl)-2-(trifluoromethyl)benzohydrazide] | 50 to 100% | 50 to 100% | 
Cc1cc(/C(F)=C/C(c2cc(Cl)c(Cl)c(Cl)c2)C(F)(F)F)ccc1C(=O)NNc1ncccn1 (stereo not drawn) [F37, (Z)-2-Methyl-N′-(pyrimidin-2-yl)-4-(1,4,4,4-tetrafluoro-3-(3,4,5-trichlorophenyl)but-1-en-1-yl)benzohydrazide] | 50 to 100% | 50 to 100% | BAW (Table CD-1) ([1]; 0.05 μg/cm^2): 0; BAW (Table CD-1) ([1]; 5.0 μg/cm^2): 100; BAW (Table CD-1) ([1]; 50 μg/cm^2): 100
CS(=O)(=O)c1nc(Cl)c(Cl)c(NNC(=O)c2ccc(/C(F)=C/C(c3cc(Cl)c(Cl)c(Cl)c3)C(F)(F)F)cc2C(F)(F)F)c1Cl (stereo not drawn) [F21, (Z)-4-(1,4,4,4-Tetrafluoro-3-(3,4,5-trichlorophenyl)but-1-en-1-yl)-N′-(2,3,5-trichloro-6-methylsulfonyl-4-pyridin-4-yl)-2-(trifluoromethyl)benzohydrazide] | 50 to 100% | 50 to 100% | 
CC(C)N(Nc1ncccn1)C(=O)c1ccc(/C(F)=C/C(c2cc(Cl)c(Cl)c(Cl)c2)C(F)(F)F)cc1C(F)(F)F (stereo not drawn) [F170, (Z)—N-Isopropyl-N′-(pyrimidin-2-yl)-4-(1,4,4,4-tetrafluoro-3-(3,4,5-trichlorophenyl)but-1-en-1-yl)-2-(trifluoromethyl)benzohydrazide] | 50 to 100% | 50 to 100% | 
Cc1ccc(NNC(=O)c2ccc(/C(F)=C/C(c3cc(Cl)c(Cl)c(Cl)c3)C(F)(F)F)cc2C(F)(F)F)cc1 (stereo not drawn) [F68, (Z)-4-(1,4,4,4-Tetrafluoro-3-(3,4,5-trichlorophenyl)but-1-en-1-yl)-N′-(p-tolyl)-2-(trifluoromethyl)benzohydrazide] | 50 to 100% | 50 to 100% | 
O=C(NNc1c(Cl)cnc(C(Cl)(Cl)Cl)c1Cl)c1ccc(/C(F)=C/C(c2cc(Cl)c(Cl)c(Cl)c2)C(F)(F)F)cc1C(F)(F)F (stereo not drawn) [F69, (Z)—N′-(3,5-Dichloro-2-(trichloromethyl)-4-pyridin-4-yl)-4-(1,4,4,4-tetrafluoro-3-(3,4,5-trichlorophenyl)but-1-en-1-yl]-2-(trifluoromethyl)benzohydrazide] | 0% | 0% | 
O=C(/N=N/c1ncccn1)c1ccc(/C(F)=C/C(c2cc(Cl)c(Cl)c(Cl)c2)C(F)(F)F)cc1C(F)(F)F (stereo not drawn) [F192, ((E)-pyrimidin-2-yldiazenyl)(4-((Z)-1,4,4,4-tetrafluoro-3-(3,4,5-trichlorophenyl)but-1-en-1-yl)-2-(trifluoromethyl)phenyl)methanone] | 50 to 100% | 50 to 100% | 
O=C(NNc1cccc(Br)n1)c1ccc(/C(F)=C/C(c2cc(Cl)c(Cl)c(Cl)c2)C(F)(F)F)cc1C(F)(F)F (stereo not drawn) [F165, (Z)—N′-(6-Bromopyridin-2-yl)-4-(1,4,4,4-tetrafluoro-3-(3,4,5-trichlorophenyl)but-1-en-1-yl)-2-(trifluoromethyl)benzohydrazide] | 50 to 100% | 50 to 100% | 
O=C(NNc1nc(Cl)nc(Cl)n1)c1ccc(/C(F)=C/C(c2cc(Cl)c(Cl)c(Cl)c2)C(F)(F)F)cc1C(F)(F)F (stereo not drawn) [F13, (Z)—N′-(4,6-Dichloro-1,3,5-triazin-2-yl)-4-(1,4,4,4-tetrafluoro-3-(3,4,5-trichlorophenyl)but-1-en-1-yl)-2-(trifluoromethyl)benzohydrazide] | 50 to 100% | 50 to 100% | 
O=C(NNc1ccccc1)c1ccc(/C(F)=C/C(c2cc(Br)c(F)c(Br)c2)C(F)(F)F)cc1C(F)(F)F (stereo not drawn) [F45, (Z)-4-(3-(3,5-dibromo-4-fluorophenyl)-1,4,4,4-tetrafluorobut-1-en-1-yl)-N′-phenyl-2-(trifluoromethyl)benzohydrazide] | 50 to 100% | 50 to 100% | 
O=C(NNc1ncccn1)c1ccc(/C(F)=C/C(c2cc(Br)c(Cl)c(Br)c2)C(F)(F)F)cc1C(F)(F)F (stereo not drawn) [F185, (Z)-4-(3-(3,5-Dibromo-4-chlorophenyl)-1,4,4,4-tetrafluorobut-1-en-1-yl)-N′-(pyrimidin-2-yl)-2-(trifluoromethyl)benzohydrazide] | 50 to 100% | 50 to 100% | 
